Our source for the IC50 values is US20230365530A1, “QUINAZOLINE-2,4-DIAMINE DERIVATIVE AND PHARMACEUTICAL COMPOSITION FOR PREVENTING OR TREATING CANCER COMPRISING SAME AS ACTIVE INGREDIENT” (THE ASEAN FOUNDATION, priority 2020, published 2023).

Sequence of EHMT2 (Euchromatic histone-lysine N-methyltransferase 2) (Q96KQ7 whole entry): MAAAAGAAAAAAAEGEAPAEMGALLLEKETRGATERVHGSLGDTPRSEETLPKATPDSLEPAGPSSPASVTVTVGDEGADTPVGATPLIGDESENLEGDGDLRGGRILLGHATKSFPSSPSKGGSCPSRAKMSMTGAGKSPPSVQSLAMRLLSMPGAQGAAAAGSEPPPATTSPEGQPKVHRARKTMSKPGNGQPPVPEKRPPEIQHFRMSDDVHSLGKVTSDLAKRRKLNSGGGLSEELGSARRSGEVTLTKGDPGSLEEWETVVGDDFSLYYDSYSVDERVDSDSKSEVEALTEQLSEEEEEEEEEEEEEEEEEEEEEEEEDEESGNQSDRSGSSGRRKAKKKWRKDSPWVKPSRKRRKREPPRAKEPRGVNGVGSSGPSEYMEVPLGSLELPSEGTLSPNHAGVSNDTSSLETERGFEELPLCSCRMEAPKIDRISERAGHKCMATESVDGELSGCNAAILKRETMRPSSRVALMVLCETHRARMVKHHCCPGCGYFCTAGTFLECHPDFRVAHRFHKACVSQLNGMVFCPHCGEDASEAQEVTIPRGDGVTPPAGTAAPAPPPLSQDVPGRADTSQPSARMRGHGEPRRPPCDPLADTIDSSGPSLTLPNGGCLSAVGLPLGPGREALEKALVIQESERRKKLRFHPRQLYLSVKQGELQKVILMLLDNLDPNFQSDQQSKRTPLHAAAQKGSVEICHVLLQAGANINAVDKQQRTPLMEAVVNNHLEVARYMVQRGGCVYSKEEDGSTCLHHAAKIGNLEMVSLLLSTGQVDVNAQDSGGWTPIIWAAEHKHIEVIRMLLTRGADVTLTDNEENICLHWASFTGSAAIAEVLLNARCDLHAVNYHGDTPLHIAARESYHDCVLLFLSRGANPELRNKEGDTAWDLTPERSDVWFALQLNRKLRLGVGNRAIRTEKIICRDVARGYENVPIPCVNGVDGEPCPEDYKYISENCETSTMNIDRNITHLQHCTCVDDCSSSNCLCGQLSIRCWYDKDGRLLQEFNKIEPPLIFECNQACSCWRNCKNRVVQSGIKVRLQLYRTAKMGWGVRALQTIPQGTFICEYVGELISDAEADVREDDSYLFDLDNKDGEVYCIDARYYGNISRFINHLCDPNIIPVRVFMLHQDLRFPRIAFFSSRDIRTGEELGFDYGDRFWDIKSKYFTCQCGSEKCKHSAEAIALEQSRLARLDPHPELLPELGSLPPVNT

In this assay the target is EHMT2 (Euchromatic histone-lysine N-methyltransferase 2) (Homo sapiens (Human), UniProt Q96KQ7). Briefly: EHMT2 enzyme inhibition, LANCE TR-FRET. The assay is classed as biochemical. The following applies: histone H3 peptide, 1 hour at room temperature. The protocol:
In order to analyze the enzyme inhibitory efficacy of the compounds of Examples 1 to 89, EHMT2 (Euchromatic histone-lysine N-methyltransferase 2) enzyme activity was measured using the LANCE TR-FRET™ analysis method of Perkin Elmer. When the EHMT2 enzyme is activated, the 9th lysine residue of the biotinylated-histone peptide is methylated and the EU-conjugated antibody is combined to the methylated histone peptide. Then, when the complex is irradiated with light of excitation wavelength, the complex emits light having a wavelength of 665 nm through FRET phenomenon. Accordingly, fluorescence was measured, and IC50 values were calculated through a software to evaluate the EHMT2 enzyme activity inhibitory effect of the compounds of Examples 1 to 89.
Specific experimental methods are as follows. First, the compounds of Examples 1 to 89 of 1 nM to 100 μM (4× conc.) were put into a 384 well plate (25 μL/well), and 2 μM EEMT2/G9a enzyme (4× conc.) was put into the 384 well plate (25 μL/well). The plate was then centrifuged at 1,500 rpm for 5 seconds after sealing the plate with plate sealing foil. After incubating the EHMT2/G9a enzyme, SAM, and the compounds of Examples above at room temperature for 10 minutes, 2 μM histone H3 peptide (4× conc.) was added to the 384-well plate (25 μL/well). After sealing the plate with plate sealing foil and centrifuging at 1,500 rpm for 5 seconds, an enzymatic reaction was performed at room temperature for 1 hour. Upon completion of the enzyme reaction, 5 μL each of 200 nM Ulight™-Streptavidin (4× conc.) and 8 nM Eu-antibody (4× conc.) was added to each well of the plate. The plate was sealed with plate sealing foil, centrifuged at 1,500 rpm for 5 seconds and reacted at room temperature for 1 hour. The signal values were measured with Envision (Ex 320 nm, Em 665 nm), and all background values obtained by reacting without enzyme were deleted from the measured raw data values. Then, the EHMT2 enzyme activity inhibitory effect of the compounds of Examples 1 to 89 was converted into % values, and compared with the EHMT2 activity when treated with 4% DMSO vehicle (=0 nM compound) as 100%.
Regarding `CCN1CCC(Nc2nc(N3CCCC3)nc3cc(C#CCCN4CC[C@H](F)C4)c(OC)cc23)CC1` [Example 78, (S)-N-(1-ethylpiperidine-4-yl)-7-(4-(3-fluoropyrrolidine-1-yl)-1-butyne-1-yl)-6-methoxy-2-(pyrrolidine-1-yl)quinazoline-4-amine], the IC50 is less than 0.1 µM.

The compound `COc1cc2c(NCCN(C)C)nc(N3CC[C@H](F)C3)nc2cc1C#CCCN1CCCC1` [Example 79, (S)-N1-(2-(3-fluoropyrrolidine-1-yl)-6-methoxy-7-(4-(pyrrolidine-1-yl)-1-butyne-1-yl)quinazoline-4-yl)-N2,N2-dimethylethane-1,2-diamine] registered an IC50 of 0.1 to 1 µM.

`COc1cc2c(NC3CCN(C(C)C)CC3)nc(N(C)C)nc2cc1C#CCCN1CCCCC1` [Example 44, N-(1-isopropylpiperidine-4-yl)-6-methoxy-N2,N2-dimethyl-7-(4-(piperidine-1-yl)-1-butyne-1-yl)quinazoline-2,4-diamine] returned an IC50 of less than 0.1 µM.

In turn, `COc1cc2c(NC3CC(C)(C)NC(C)(C)C3)nc(N3CCCC3)nc2cc1C#CCCN1CCCC1` [Example 73, 6-methoxy-2-(pyrrolidine-1-yl)-7-(4-(pyrrolidine-1-yl)-1-butyne-1-yl)-N-(2,2,6,6-tetramethylpiperidine-4-yl)quinazoline-4-amine] registered an IC50 of less than 0.1 µM.

In the case of `CCCN1CCC(Nc2nc(N3CC[C@@H](F)C3)nc3cc(C#CCCN4CCCC4)c(OC)cc23)CC1` [Example 84, (R)-2-(3-fluoropyrrolidine-1-yl)-6-methoxy-N-(1-propylpiperidine-4-yl)-7-(4-(pyrrolidine-1-yl)-1-butyne-1-yl)quinazoline-4-amine], the IC50 is less than 0.1 µM.

Take `COc1cc2c(NC3CCN(C(C)C)CC3)nc(N3CCCCCC3)nc2cc1C#CCCN(C)C` [Example 8, 2-(azepane-1-yl)-7-(4-(dimethylamino)-1-butyne-1-yl)-N-(1-isopropylpiperidine-4-yl)-6-methoxyquinazoline-4-amine]: the IC50 is less than 0.1 µM.

`COc1cc2c(NC3CCN(C(C)C)CC3)nc(N3CCCCC3)nc2cc1C#CCCN1CCC(C)CC1` [Example 15, N-(1-isopropylpiperidine-4-yl)-6-methoxy-7-(4-(4-methylpiperidine-1-yl)-1-butyne-1-yl)-2-(piperidine-1-yl)quinazoline-4-amine] came in with an IC50 of 1 to 10 µM.

Regarding `COc1cc2c(NC3CCN(C(C)C)CC3)nc(N3CCC(F)(F)CC3)nc2cc1C#CCCN(C)C` [Example 4], the IC50 fell in the range of 1 to 10 µM.

Consider `COc1cc2c(NC3CCN(C(C)C)CC3)nc(N3CCOCC3)nc2cc1C#CCCN(C)C` [Example 5, 7-(4-(dimethylamino)-1-butyne-1-yl)-N-(1-isopropylpiperidine-4-yl)-6-methoxy-2-morpholinoquinazoline-4-amine], for which the IC50 lay in the range of 10 to 100 µM.

With `CCN(CC)CCC#Cc1cc2nc(N3CCCCC3)nc(NC3CCN(C(C)C)CC3)c2cc1OC` [Example 13, 7-(4-(diethylamino)-1-butyne-1-yl)-N-(1-isopropylpiperidine-4-yl)-6-methoxy-2-(piperidine-1-yl)quinazoline-4-amine], the IC50 was in the range of 1 to 10 µM.

`COc1cc2c(NC3CCN(C(C)C)CC3)nc(N3CCCN(C)CC3)nc2cc1C#CCCN(C)C` [Example 17, 7-(4-(dimethylamino)-1-butyne-1-yl)-N-(1-isopropylpiperidine-4-yl)-6-methoxy-2-(4-methyl-1,4-diazepane-1-yl)quinazoline-4-amine] yielded an IC50 of less than 0.1 µM.

Consider `COc1cc2c(NC3CCN(C(C)C)CC3)nc(N3CCN(C)CC3)nc2cc1C#CCCN(C)C` [Example 7, 7-(4-(dimethylamino)-1-butyne-1-yl)-N-(1-isopropylpiperidine-4-yl)-6-methoxy-2-(4-methylpiperazine-1-yl)quinazoline-4-amine], for which the IC50 was 0.1 to 1 µM.

The compound `COc1cc2c(NC3CCN(CCO)CC3)nc(N3CCCCC3)nc2cc1C#CCCN1CCCC1` [Example 69, 2-(4-((6-methoxy-2-(piperidine-1-yl)-7-(4-(pyrrolidine-1-yl)-1-butyne-1-yl)quinazoline-4-yl)amino)piperidine-1-yl)ethanol] registered an IC50 of less than 0.1 µM.

For orientation: IC50 means the concentration that gives 50% inhibition.
